In ChEMBL document CHEMBL1275492, “In vitro activity of ceftobiprole against pathogens from two phase 3 clinical trials of complicated skin and skin structure infections” (2008):

Assays:
Type in all cases: functional
Proteus mirabilis = experiment: Antibacterial activity against Proteus mirabilis obtained from complicated skin and skin structure infections by agar dilution method
Acinetobacter baumannii = experiment: Antibacterial activity against Acinetobacter baumannii obtained from complicated skin and skin structure infections by agar dilution method
[1] = system: Staphylococcus lugdunensis; experiment: Antibacterial activity against methicillin-resistant, oxacillin-susceptible, coagulase-negative, mecA-positive Staphylococcus lugdunensis obtained from complicated skin and skin structure infections by agar dilution method
Klebsiella aerogenes = experiment: Antibacterial activity against Enterobacter aerogenes obtained from complicated skin and skin structure infections by agar dilution method
Proteus penneri = experiment: Antibacterial activity against Proteus penneri obtained from complicated skin and skin structure infections by agar dilution method
Staphylococcus aureus [2] = experiment: Antibacterial activity against Staphylococcus aureus obtained from complicated skin and skin structure infections by agar dilution method
Bacillus = experiment: Antibacterial activity against Bacillus spp. obtained from complicated skin and skin structure infections by agar dilution method
Pseudomonas aeruginosa = experiment: Antibacterial activity against Pseudomonas aeruginosa obtained from complicated skin and skin structure infections by agar dilution method
Staphylococcus warneri = experiment: Antibacterial activity against coagulase-negative Staphylococcus warneri obtained from complicated skin and skin structure infections by agar dilution method
[3] = Antibacterial activity against Streptococcus sp. 'group G' obtained from complicated skin and skin structure infections by agar dilution method
Streptococcus pyogenes = experiment: Antibacterial activity against Streptococcus pyogenes obtained from complicated skin and skin structure infections by agar dilution method
Escherichia coli = experiment: Antibacterial activity against Escherichia coli obtained from complicated skin and skin structure infections by agar dilution method
[4] = system: Staphylococcus epidermidis; experiment: Antibacterial activity against coagulase-negative Staphylococcus epidermidis obtained from complicated skin and skin structure infections by agar dilution method
Aerococcus viridans = experiment: Antibacterial activity against Aerococcus viridans obtained from complicated skin and skin structure infections by agar dilution method
Streptococcus mitis = experiment: Antibacterial activity against Streptococcus mitis obtained from complicated skin and skin structure infections by agar dilution method
[5] = system: Staphylococcus saprophyticus; experiment: Antibacterial activity against coagulase-negative Staphylococcus saprophyticus obtained from complicated skin and skin structure infections by agar dilution method
Klebsiella oxytoca = experiment: Antibacterial activity against Klebsiella oxytoca obtained from complicated skin and skin structure infections by agar dilution method
Micrococcus = experiment: Antibacterial activity against Micrococcus spp. obtained from complicated skin and skin structure infections by agar dilution method
Citrobacter braakii = experiment: Antibacterial activity against Citrobacter braakii obtained from complicated skin and skin structure infections by agar dilution method
[6] = system: Stenotrophomonas maltophilia; experiment: Antibacterial activity against Stenotrophomonas maltophilia obtained from complicated skin and skin structure infections by agar dilution method
Enterobacter amnigenus = experiment: Antibacterial activity against Enterobacter amnigenus obtained from complicated skin and skin structure infections by agar dilution method; settings: Lelliottia amnigena
Bacteroides fragilis = experiment: Antibacterial activity against Bacteroides fragilis obtained from complicated skin and skin structure infections by agar dilution method
Staphylococcus aureus [7] = experiment: Antibacterial activity against methicillin susceptible Staphylococcus aureus obtained from complicated skin and skin structure infections by agar dilution method
Veillonella = experiment: Antibacterial activity against Veillonella spp. obtained from complicated skin and skin structure infections by agar dilution method
[8] = system: Staphylococcus lugdunensis; experiment: Antibacterial activity against coagulase-negative Staphylococcus lugdunensis obtained from complicated skin and skin structure infections by agar dilution method
Staphylococcus hominis = experiment: Antibacterial activity against coagulase-negative Staphylococcus hominis obtained from complicated skin and skin structure infections by agar dilution method
Staphylococcus cohnii = experiment: Antibacterial activity against coagulase-negative Staphylococcus cohnii obtained from complicated skin and skin structure infections by agar dilution method
[9] = system: Streptococcus constellatus; experiment: Antibacterial activity against Streptococcus constellatus obtained from complicated skin and skin structure infections by agar dilution method
Salmonella = experiment: Antibacterial activity against Salmonella spp. obtained from complicated skin and skin structure infections by agar dilution method
Staphylococcus aureus [10] = experiment: Antibacterial activity against methicillin resistant Staphylococcus aureus obtained from complicated skin and skin structure infections by agar dilution method
Enterococcus faecium = experiment: Antibacterial activity against Enterococcus faecium obtained from complicated skin and skin structure infections by agar dilution method
Staphylococcus = experiment: Antibacterial activity against methicillin-susceptible, coagulase-negative Staphylococcus obtained from complicated skin and skin structure infections by agar dilution method
Enterobacter cloacae = experiment: Antibacterial activity against Enterobacter cloacae obtained from complicated skin and skin structure infections by agar dilution method
Providencia stuartii = experiment: Antibacterial activity against Providencia stuartii obtained from complicated skin and skin structure infections by agar dilution method
[11] = system: Staphylococcus haemolyticus; experiment: Antibacterial activity against coagulase-negative Staphylococcus haemolyticus obtained from complicated skin and skin structure infections by agar dilution method
Klebsiella pneumoniae = experiment: Antibacterial activity against Klebsiella pneumoniae obtained from complicated skin and skin structure infections by agar dilution method
Pseudomonas fluorescens = experiment: Antibacterial activity against Pseudomonas fluorescens obtained from complicated skin and skin structure infections by agar dilution method
[12] = Antibacterial activity against Streptococcus sp. 'group C' obtained from complicated skin and skin structure infections by agar dilution method
Lactococcus lactis = experiment: Antibacterial activity against Lactococcus lactis obtained from complicated skin and skin structure infections by agar dilution method
Morganella morganii = experiment: Antibacterial activity against Morganella morganii obtained from complicated skin and skin structure infections by agar dilution method
Proteus vulgaris = experiment: Antibacterial activity against Proteus vulgaris obtained from complicated skin and skin structure infections by agar dilution method
Gemella morbillorum = experiment: Antibacterial activity against Gemella morbillorum obtained from complicated skin and skin structure infections […]
Serratia marcescens = experiment: Antibacterial activity against Serratia marcescens obtained from complicated skin and skin structure infections by agar dilution method
Mammaliicoccus sciuri = experiment: Antibacterial activity against coagulase-negative Staphylococcus sciuri obtained from complicated skin and skin structure infections by agar dilution method
Citrobacter freundii = experiment: Antibacterial activity against Citrobacter freundii obtained from complicated skin and skin structure infections by agar dilution method
[13] = system: Staphylococcus intermedius; experiment: Antibacterial activity against Staphylococcus intermedius obtained from complicated skin and skin structure infections by agar dilution method
Streptococcus agalactiae = experiment: Antibacterial activity against Streptococcus agalactiae obtained from complicated skin and skin structure infections by agar dilution method
Prevotella = experiment: Antibacterial activity against Prevotella spp. obtained from complicated skin and skin structure infections by agar dilution method
Gemella = experiment: Antibacterial activity against Gemella spp. obtained from complicated skin and skin structure infections by agar dilution method
Enterococcus faecalis = experiment: Antibacterial activity against Enterococcus faecalis obtained from complicated skin and skin structure infections by agar dilution method
Staphylococcus capitis = experiment: Antibacterial activity against coagulase-negative Staphylococcus capitis obtained from complicated skin and skin structure infections by agar dilution method

Nc1nc(/C(=N/O)C(=O)N[C@@H]2C(=O)N3C(C(=O)O)=C(/C=C4\CCN([C@@H]5CCNC5)C4=O)CS[C@H]23)ns1 [CEFTOBIPROLE]
4 µg/mL: MIC50 (Pseudomonas aeruginosa)
32 µg/mL: MIC90 (Klebsiella aerogenes) | MIC90 (Proteus penneri) | MIC90 (Klebsiella oxytoca) | MIC90 (Citrobacter braakii) | MIC90 (Enterobacter amnigenus) | MIC90 (Salmonella) | MIC90 (Providencia stuartii) | MIC90 (Klebsiella pneumoniae) | MIC90 (Proteus vulgaris) | MIC90 (Serratia marcescens) | MIC90 (Citrobacter freundii)
> 64 µg/mL: MIC50 (Acinetobacter baumannii) | MIC90 (Acinetobacter baumannii) | MIC90 (Pseudomonas aeruginosa) | MIC50 [6] | MIC90 [6] | MIC50 (Enterococcus faecium) | MIC90 (Enterobacter cloacae) | MIC50 (Pseudomonas fluorescens) | MIC90 (Pseudomonas fluorescens)
0.12 µg/mL: MIC90 (Proteus mirabilis) | MIC50 (Bacillus) | MIC90 (Escherichia coli) | MIC50 (Aerococcus viridans) | MIC90 (Streptococcus mitis) | MIC50 (Micrococcus) | MIC90 [9] | MIC90 [12] | MIC50 (Lactococcus lactis) | MIC50 (Morganella morganii) | MIC50 (Gemella morbillorum) | MIC90 [13] | MIC90 (Streptococcus agalactiae) | MIC50 (Gemella)
1 µg/mL: MIC90 (Staphylococcus aureus [2]) | MIC90 (Staphylococcus warneri) | MIC90 [4] | MIC90 [5] | MIC90 [8] | MIC90 (Staphylococcus hominis) | MIC90 (Staphylococcus cohnii) | MIC90 [11] | MIC90 (Mammaliicoccus sciuri) | MIC90 (Staphylococcus capitis)
≤ 0.03 µg/mL: MIC (Bacteroides fragilis) | MIC (Veillonella) | MIC (Prevotella)
2 µg/mL: MIC90 [1] | MIC90 (Staphylococcus aureus [10])
0.25 µg/mL: MIC90 (Bacillus) | MIC90 (Aerococcus viridans) | MIC90 (Micrococcus) | MIC50 (Staphylococcus aureus [7]) | MIC50 (Staphylococcus) | MIC90 (Lactococcus lactis) | MIC90 (Gemella morbillorum) | MIC90 (Gemella)
0.008 µg/mL: MIC50 [3] | MIC (Streptococcus pyogenes) | MIC50 (Streptococcus pyogenes)
0.5 µg/mL: MIC50 [1] | MIC50 (Staphylococcus aureus [2]) | MIC50 (Staphylococcus warneri) | MIC50 [4] | MIC50 [5] | MIC90 (Staphylococcus aureus [7]) | MIC50 [8] | MIC50 (Staphylococcus hominis) | MIC50 (Staphylococcus cohnii) | MIC50 (Staphylococcus aureus [10]) | MIC90 (Staphylococcus) | MIC50 [11] | MIC50 (Mammaliicoccus sciuri) | MIC50 (Enterococcus faecalis) | MIC90 (Enterococcus faecalis) | MIC50 (Staphylococcus capitis)
0.015 µg/mL: MIC90 (Streptococcus pyogenes)
0.06 µg/mL: MIC50 (Klebsiella aerogenes) | MIC50 (Proteus penneri) | MIC90 [3] | MIC50 (Escherichia coli) | MIC50 (Streptococcus mitis) | MIC50 (Klebsiella oxytoca) | MIC50 (Citrobacter braakii) | MIC50 (Enterobacter amnigenus) | MIC50 [9] | MIC50 (Salmonella) | MIC50 (Enterobacter cloacae) | MIC50 (Providencia stuartii) | MIC50 (Klebsiella pneumoniae) | MIC50 [12] | MIC50 (Proteus vulgaris) | MIC50 (Serratia marcescens) | MIC50 (Citrobacter freundii) | MIC50 [13] | MIC50 (Streptococcus agalactiae)
0.03 µg/mL: MIC50 (Proteus mirabilis)
64 µg/mL: MIC90 (Morganella morganii)
